Test results published in patent US9974766B2, “Prenylated isoflavones for treatment of subjects with multidrug-resistant cancer” (Macau University of Science and Technology, priority 2015, dated 2018).
“Also recorded” adds a separate entry of the source.

Experiments:
[1] = tested on: HCT-8 (Colon) (Taxol sensitive); assay: MTT cytotoxicity assay, HCT-8 Taxol sensitive; type: cell-based; settings: Homo sapiens, HCT-8, 72 h, 3 days
Experimental: (§1) Cell cultures and cytotoxicity assays have been carried out. […] Subsequently, 10 μL of MTT reagents is added to each well and incubated at 37° C. for 4 hours followed by the addition of 100 μL solubilization buffer (10% SDS in 0.01 mol/L HCl) and overnight incubation. Absorbance at 585 nm is determined from each well the next day. The percentage of cell viability is calculated using the following formula: Cell viability (%)=Cells number treated/Cells number DMSO control×100. Data are obtained from three independent experiments. The resistant factor is calculated by dividing the IC50 in resistant cells by its IC50 against drug-sensitive cells.

[2] = tested on: HCT-8 (Colon) (Taxol resistant); assay: MTT cytotoxicity assay, HCT-8 Taxol resistant; type: cell-based, human; settings: for IC50: Homo sapiens, HCT-8, 72 h, MTT, 3 days; for Resistant Factor: IC50 in Taxol resistant HCT-8 divided by IC50 in Taxol sensitive HCT-8
Experimental: as §1

[3] = tested on: MCF-7 (Breast) (Dox sensitive); assay: MTT cytotoxicity assay, MCF-7 Dox sensitive; type: cell-based; settings: Homo sapiens, MCF7, 72 h, 3 days
Experimental: as §1

[4] = tested on: A549 (Lung) (Taxol sensitive); assay: MTT cytotoxicity assay, A549 Taxol sensitive; type: cell-based; settings: Homo sapiens, A549, 72 h, 3 days
Experimental: as §1

P-glycoprotein [5] = assay: Rho123 efflux assay in MCF-7 taxol/doxorubicin-sensitive breast cancer cells; settings: MCF-7 drug-sensitive cells without P-glycoprotein expression; pomiferin 5-20 μM or verapamil 10 μM, 24 h, then Rho123 1 h
[6] = tested on: MCF-7 (Breast) (Dox resistant); assay: MTT cytotoxicity assay, MCF-7 Dox resistant; type: cell-based, human; settings: for IC50: Homo sapiens, MCF7, 72 h, MTT, 3 days; for Resistant Factor: IC50 in Dox resistant MCF-7 divided by IC50 in Dox sensitive MCF-7
Experimental: as §1

[7] = tested on: MCF-7 (Breast) (Taxol resistant); assay: MTT cytotoxicity assay, MCF-7 Taxol resistant; type: cell-based, human; settings: for IC50: Homo sapiens, MCF7, 72 h, MTT, 3 days; for Resistant Factor: IC50 in Taxol resistant MCF-7 divided by IC50 in Taxol sensitive MCF-7
Experimental: as §1

[8] = tested on: HCT-8 taxol-resistant colon cancer cells; assay: Annexin V/propidium iodide flow cytometry of cell death, HCT-8 taxol-resistant; type: cell-based, human; settings: 1-10 μM pomiferin with 40 μM taxol, 24 h
Experimental: (§2) Cell death and viability are measured using an Annexin V staining kit (BD Biosciences, San Jose, Calif., USA). […] Cells were then harvested and analysed by multiparametric flow cytometry using FITC-Annexin V and propidium iodide staining (BD Biosciences, San Jose, Calif., USA) according to the manufacturer's instructions. Flow cytometry has been then carried out using a FACSCalibur flow cytometer (BD Biosciences, San Jose, Calif., USA). […] Data were obtained from three independent experiments.

[9] = tested on: MCF-7 (Breast) (Taxol sensitive); assay: MTT cytotoxicity assay, MCF-7 Taxol sensitive; type: cell-based; settings: Homo sapiens, MCF7, 72 h, 3 days
Experimental: as §1

[10] = tested on: A549 (Lung) (Taxol resistant); assay: MTT cytotoxicity assay, A549 Taxol resistant; type: cell-based, human; settings: for IC50: Homo sapiens, A549, 72 h, MTT, 3 days; for Resistant Factor: IC50 in Taxol resistant A549 divided by IC50 in Taxol sensitive A549
Experimental: as §1

[11] = tested on: A549 taxol-resistant lung cancer cells; assay: Annexin V/propidium iodide flow cytometry of cell death, A549 taxol-resistant; type: cell-based, human; settings: 1-10 μM pomiferin with 40 μM taxol, 24 h
Experimental: as §2

P-glycoprotein [12] = biological target: P-glycoprotein (Homo sapiens, UniProt P08183); assay: Rho123 efflux assay in A549 taxol-resistant lung cancer cells; settings: Example 8, 10 μM of each compound, 24 h, then Rho123 1 h
P-glycoprotein (Homo sapiens, UniProt P08183), sequence (P08183 whole entry): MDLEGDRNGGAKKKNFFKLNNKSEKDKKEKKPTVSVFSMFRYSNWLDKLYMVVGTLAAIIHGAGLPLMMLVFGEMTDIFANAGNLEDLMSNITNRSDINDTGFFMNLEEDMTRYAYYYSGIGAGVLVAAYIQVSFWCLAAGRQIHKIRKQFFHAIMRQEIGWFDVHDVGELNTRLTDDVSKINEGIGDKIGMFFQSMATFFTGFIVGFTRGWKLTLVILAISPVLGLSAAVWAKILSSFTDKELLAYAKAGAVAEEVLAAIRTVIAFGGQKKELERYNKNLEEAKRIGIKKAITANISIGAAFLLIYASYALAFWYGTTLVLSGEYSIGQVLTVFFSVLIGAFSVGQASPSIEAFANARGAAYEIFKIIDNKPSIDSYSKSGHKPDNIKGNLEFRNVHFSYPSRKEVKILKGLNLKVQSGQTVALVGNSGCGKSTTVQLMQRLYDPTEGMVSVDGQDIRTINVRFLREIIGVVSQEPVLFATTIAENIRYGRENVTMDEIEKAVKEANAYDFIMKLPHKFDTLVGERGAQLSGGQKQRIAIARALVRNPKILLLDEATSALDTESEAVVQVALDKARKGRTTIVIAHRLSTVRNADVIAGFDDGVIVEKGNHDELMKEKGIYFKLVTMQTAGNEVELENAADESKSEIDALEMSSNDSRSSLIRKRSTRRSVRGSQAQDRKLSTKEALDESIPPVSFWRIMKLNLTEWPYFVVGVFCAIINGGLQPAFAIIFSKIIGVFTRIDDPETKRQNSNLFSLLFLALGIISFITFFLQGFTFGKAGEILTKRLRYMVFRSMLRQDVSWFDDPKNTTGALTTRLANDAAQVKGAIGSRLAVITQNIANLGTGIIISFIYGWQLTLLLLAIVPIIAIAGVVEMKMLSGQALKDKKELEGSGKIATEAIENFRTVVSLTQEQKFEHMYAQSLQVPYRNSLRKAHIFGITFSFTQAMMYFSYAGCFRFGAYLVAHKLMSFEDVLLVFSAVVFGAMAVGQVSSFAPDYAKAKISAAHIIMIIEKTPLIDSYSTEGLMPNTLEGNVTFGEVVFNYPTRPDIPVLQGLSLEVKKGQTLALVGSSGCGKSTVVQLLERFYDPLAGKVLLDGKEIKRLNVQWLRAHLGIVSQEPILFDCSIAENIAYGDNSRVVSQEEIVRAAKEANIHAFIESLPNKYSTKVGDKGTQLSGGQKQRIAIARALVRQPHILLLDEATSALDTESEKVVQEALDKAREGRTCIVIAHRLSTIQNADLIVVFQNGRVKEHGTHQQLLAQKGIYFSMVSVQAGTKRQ

CC(C)=CCc1c2c(c3occ(-c4ccc(O)c(O)c4)c(=O)c3c1O)C=CC(C)(C)O2 [pomiferin, 3-(3,4-dihydroxyphenyl)-5-hydroxy-8,8-dimethyl-6-(3-methylbut-2-enyl)pyrano[2,3-h] chromen-4-one]
IC50 [1]: 25.5 µM
IC50 [2]: 17.6 µM
Resistant Factor [2]: 0.69 ×
Resistant Factor ([2]; listed as Pomiferin): 0.69×
IC50 [3]: 35.9 µM
IC50 [4]: 18.2 µM
Rho123 fluorescence signal / accumulation in cells (P-glycoprotein [5]): no difference in fluorescence signal compared with Rho123 stained cells
IC50 [6]: 15.2 µM
Resistant Factor [6]: 0.42 ×
IC50 [7]: 27.1 µM
Resistant Factor [7]: 0.76 ×
Resistant Factor ([7]; listed as Pomiferin): 0.76×
effect on taxol-mediated cytotoxicity (cell death) [8]: enhanced taxol-mediated cytotoxicity
IC50 [9]: 35.7 µM
IC50 [10]: 17.2 µM
Resistant Factor [10]: 0.95 ×
Resistant Factor ([10]; listed as Pomiferin): 0.95×
effect on taxol-mediated cytotoxicity (cell death) [11]: significantly enhanced the taxol-mediated cytotoxicity

COc1ccc(-c2coc3c4c(c(CC=C(C)C)c(O)c3c2=O)OC(C)(C)C=C4)cc1 [osajin 4′-methyl ether]
P-glycoprotein inhibition (Rho123 accumulation) (P-glycoprotein [12]): showed P-glycoprotein inhibition with a different extent

CC(=O)O[C@H]1C(=O)[C@@]2(C)[C@H]([C@H](OC(=O)c3ccccc3)[C@]3(O)C[C@H](OC(=O)[C@H](O)[C@@H](NC(=O)c4ccccc4)c4ccccc4)C(C)=C1C3(C)C)[C@]1(OC(C)=O)CO[C@@H]1C[C@@H]2O [Taxol, paclitaxel, reference compound]
IC50 [1]: < 0.001 µM
IC50 [2]: 35.3 µM
Resistant Factor [2]: >35300×
Resistant Factor ([2]; listed as taxol): 35300 ×
IC50 [4]: 0.0309 µM
IC50 [7]: 5 µM
Resistant Factor [7]: 5000×
Resistant Factor ([7]; listed as taxol): over 5000 ×
IC50 [9]: < 0.001 µM
IC50 [10]: 31.3 µM
Resistant Factor [10]: 1012.945×
Resistant Factor ([10]; listed as taxol): 1000 ×

CC1(C)C=Cc2c(c3c(c4c(=O)c(-c5ccc(O)c(O)c5)coc24)OC(C)(C)CC3)O1 [isopomiferin, 7,8-dihydro-3-(3,4-dihydroxyphenyl)-6,6,10,10-tetramethyl-4H,6H,10H-benzo[1,2-b:3,4-b′:5,6-b″]tripyran-4-one]
P-glycoprotein inhibition (Rho123 accumulation) (P-glycoprotein [12]): showed P-glycoprotein inhibition with a different extent; also recorded: comparable effect compared to pomiferin

COc1ccc(C2COc3c4c(c(CC=C(C)C)c(OC)c3C2=O)OC(C)(C)C=C4)cc1OC (stereo not shown) [pomiferin trimethyl ether]
P-glycoprotein inhibition (Rho123 accumulation) (P-glycoprotein [12]): showed P-glycoprotein inhibition with a different extent

CC1(C)C=Cc2c(c3c(c4c(=O)c(-c5ccc(O)cc5)coc24)OC(C)(C)CC3)O1 [isoosajin, 3,4-dihydro-11-(4-hydroxyphenyl)-2,2,6,6-tetramethyl-2H,6H,12H-benzo[1,2-b:3,4-b′:5,6-b″]tripyran-12-one]
P-glycoprotein inhibition (Rho123 accumulation) (P-glycoprotein [12]): showed P-glycoprotein inhibition with a different extent; also recorded: comparable effect compared to pomiferin

COc1cccc2c1C(=O)c1c(O)c3c(c(O)c1C2=O)C[C@@](O)(C(=O)CO)C[C@@H]3O[C@H]1C[C@H](N)[C@H](O)[C@H](C)O1 [doxorubicin, reference compound]
IC50 [3]: 0.463 µg/mL
IC50 [6]: 10 µg/mL
Resistant Factor [6]: 21.6 ×
